# From US10695337B2, “Piperidin-4-yl azetidine derivatives as JAK1 inhibitors” (Incyte Corporation, priority 2010, dated 2020)
# Target: human JAK1 (a.a. 837-1142)
# Test: In vitro JAK kinase assay (HTRF, phosphorylation of a biotinylated peptide), JAK1
# Type: biochemical
# Details: measured at 1 mM ATP; JAK2 IC50 / JAK1 IC50
# Method in brief: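 N-terminal His-tagged catalytic domains, baculovirus-expressed in insect cells, phosphorylated a biotinylated peptide for 1 hr at room temperature. EDTA stop was followed by SA-APC and Eu-Py20 antibody for 40 minutes, with phosphopeptide read by HTRF.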
row,Structure (SMILES),IC50 Ratio JAK2/JAK1
1,"N#CCC1(n2cc(-c3ncnc4[nH]ccc34)cn2)CN(C2CCN(C(=O)Nc3ccc(Cl)cc3F)CC2)C1 [Example 178, N-(4-chloro-2-fluorophenyl)-4-{3-(cyanomethyl)-3-[4-(7H-pyrrolo[2,3-d]pyrimidin-4-yl)-1H-pyrazol-1-yl]azetidin-1-yl}piperidine-1-carboxamide]",6.5
2,"N#CCC1(n2cc(-c3ncnc4[nH]ccc34)cn2)CN(C2CCN(C(=O)Nc3ccsc3)CC2)C1 [Example 179, 4-{3-(cyanomethyl)-3-[4-(7H-pyrrolo[2,3-d]pyrimidin-4-yl)-1H-pyrazol-1-yl]azetidin-1-yl}-N-3-thienylpiperidine-1-carboxamide]",3.8
3,"COc1ccccc1NC(=O)N1CCC(N2CC(CC#N)(n3cc(-c4ncnc5[nH]ccc45)cn3)C2)CC1 [Example 180, 4-{3-(cyanomethyl)-3-[4-(7H-pyrrolo[2,3-d]pyrimidin-4-yl)-1H-pyrazol-1-yl]azetidin-1-yl}-N-(2-methoxyphenyl)piperidine-1-carboxamide]",4.0
4,"COc1cccc(NC(=O)N2CCC(N3CC(CC#N)(n4cc(-c5ncnc6[nH]ccc56)cn4)C3)CC2)c1 [Example 181, 4-{3-(cyanomethyl)-3-[4-(7H-pyrrolo[2,3-d]pyrimidin-4-yl)-1H-pyrazol-1-yl]azetidin-1-yl}-N-(3-methoxyphenyl)piperidine-1-carboxamide]",4.9
5,"N#CCC1(n2cc(-c3ncnc4[nH]ccc34)cn2)CN(C2CCN(C(=O)Nc3ccc(OC(F)(F)F)cc3)CC2)C1 [Example 182, 4-{3-(cyanomethyl)-3-[4-(7H-pyrrolo[2,3-d]pyrimidin-4-yl)-1H-pyrazol-1-yl]azetidin-1-yl}-N-[4-(trifluoromethoxy)phenyl]piperidine-1-carboxamide]",3.7
6,"N#CCC1(n2cc(-c3ncnc4[nH]ccc34)cn2)CN(C2CCN(C(=O)Nc3cccc(Cl)c3)CC2)C1 [Example 183, N-(3-chlorophenyl)-4-{3-(cyanomethyl)-3-[4-(7H-pyrrolo[2,3-d]pyrimidin-4-yl)-1H-pyrazol-1-yl]azetidin-1-yl}piperidine-1-carboxamide]",3.8
7,"N#CCC1(n2cc(-c3ncnc4[nH]ccc34)cn2)CN(C2CCN(C(=O)Nc3ccc(Cl)cc3)CC2)C1 [Example 184, N-(4-chlorophenyl)-4-{3-(cyanomethyl)-3-[4-(7H-pyrrolo[2,3-d]pyrimidin-4-yl)-1H-pyrazol-1-yl]azetidin-1-yl}piperidine-1-carboxamide]",3.9
8,"Cc1ccccc1NC(=O)N1CCC(N2CC(CC#N)(n3cc(-c4ncnc5[nH]ccc45)cn3)C2)CC1 [Example 185, 4-{3-(cyanomethyl)-3-[4-(7H-pyrrolo[2,3-d]pyrimidin-4-yl)-1H-pyrazol-1-yl]azetidin-1-yl}-N-(2-methylphenyl) piperidine-1-carboxamide]",9.5
9,"COc1ccc(OC)c(NC(=O)N2CCC(N3CC(CC#N)(n4cc(-c5ncnc6[nH]ccc56)cn4)C3)CC2)c1 [Example 186, 4-{3-(cyanomethyl)-3-[4-(7H-pyrrolo[2,3-d]pyrimidin-4-yl)-1H-pyrazol-1-yl]azetidin-1-yl}-N-(2,5-dimethoxyphenyl)piperidine-1-carboxamide]",5.5
10,"Cc1ccc(NC(=O)N2CCC(N3CC(CC#N)(n4cc(-c5ncnc6[nH]ccc56)cn4)C3)CC2)c(C)n1 [Example 189, 4-{3-(cyanomethyl)-3-[4-(7H-pyrrolo[2,3-d]pyrimidin-4-yl)-1H-pyrazol-1-yl]azetidin-1-yl}-N-(2,6-dimethylpyridin-3-yl)piperidine-1-carboxamide]",3.5
11,"N#CCC1(n2cc(-c3ncnc4[nH]ccc34)cn2)CN(C2CCN(C(=O)Nc3nccs3)CC2)C1 [Example 190, 4-{3-(cyanomethyl)-3-[4-(7H-pyrrolo[2,3-d]pyrimidin-4-yl)-1H-pyrazol-1-yl]azetidin-1-yl}-N-1,3-thiazol-2-ylpiperidine-1-carboxamide]",2.1
